Earlier results in paper PMC13207833, “Coumarin–Amino Acid Hybrids Used as Possible Multifactorial Anti-Inflammatory Agents” (International Journal of Molecular Sciences, 2026).

Biological target: T1, soybean lipoxygenase (SLOX-1) (Glycine max, UniProt P08170)
T1 construct: purchased Merck and Sigma-Aldrich
T1 sequence (P08170 1-839): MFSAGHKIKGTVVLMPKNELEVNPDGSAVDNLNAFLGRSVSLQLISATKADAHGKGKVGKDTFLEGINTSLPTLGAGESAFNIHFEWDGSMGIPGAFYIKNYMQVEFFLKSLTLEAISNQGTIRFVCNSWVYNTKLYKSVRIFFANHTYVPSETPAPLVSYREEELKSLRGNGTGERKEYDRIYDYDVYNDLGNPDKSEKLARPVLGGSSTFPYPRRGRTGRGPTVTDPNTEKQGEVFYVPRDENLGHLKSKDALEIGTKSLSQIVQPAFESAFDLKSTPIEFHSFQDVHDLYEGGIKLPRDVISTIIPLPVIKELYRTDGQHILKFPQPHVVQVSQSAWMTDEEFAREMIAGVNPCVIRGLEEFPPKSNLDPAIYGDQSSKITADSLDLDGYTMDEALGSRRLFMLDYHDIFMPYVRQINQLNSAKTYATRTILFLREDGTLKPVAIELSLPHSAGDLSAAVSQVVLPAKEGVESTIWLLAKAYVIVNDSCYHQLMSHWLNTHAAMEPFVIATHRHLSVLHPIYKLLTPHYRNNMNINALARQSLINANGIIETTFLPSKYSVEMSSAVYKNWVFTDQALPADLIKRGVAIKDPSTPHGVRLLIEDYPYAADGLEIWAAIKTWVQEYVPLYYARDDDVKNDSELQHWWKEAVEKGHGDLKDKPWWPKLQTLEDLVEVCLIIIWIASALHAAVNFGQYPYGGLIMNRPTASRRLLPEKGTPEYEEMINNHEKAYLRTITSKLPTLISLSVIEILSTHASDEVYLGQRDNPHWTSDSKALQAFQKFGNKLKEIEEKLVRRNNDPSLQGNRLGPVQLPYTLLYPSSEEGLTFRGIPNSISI
Set-up: method as in PMID 29329232
Settings: value from earlier paper of the group

SMILES	IC50 [µM]
O=C(O)COc1ccc2ccc(=O)oc2c1 [Compound 3, 2-((2-oxo-2H-chromen-7-yl)oxy)acetic acid]	100
O=C(O)COc1ccc2oc(=O)ccc2c1 [Compound 2, 2-((2-oxo-2H-chromen-6-yl)oxy)acetic acid]	100
